From ChEMBL document CHEMBL1799927, “Discovery of imidazo[1,2-a]pyrazine-based Aurora kinase inhibitors” (Bioorg Med Chem Lett, 2010)
Converted amounts (≈) assume the structure as drawn. Values belong to the compound of their own block, whether it stands above or below them.

Legend:
[1] = biological target: Aurora kinase B (Homo sapiens, UniProt Q96GD4); assay: Inhibition of aurora B kinase using 5TAMRA-GRTGRRNSICOOH as substrate by fluorescent assay
[2] = biological target: T1, Aurora kinase A (Homo sapiens, UniProt O14965); assay: Inhibition of aurora A kinase using 5TAMRA-GRTGRRNSICOOH as substrate by fluorescent assay
T1 sequence (O14965 whole entry): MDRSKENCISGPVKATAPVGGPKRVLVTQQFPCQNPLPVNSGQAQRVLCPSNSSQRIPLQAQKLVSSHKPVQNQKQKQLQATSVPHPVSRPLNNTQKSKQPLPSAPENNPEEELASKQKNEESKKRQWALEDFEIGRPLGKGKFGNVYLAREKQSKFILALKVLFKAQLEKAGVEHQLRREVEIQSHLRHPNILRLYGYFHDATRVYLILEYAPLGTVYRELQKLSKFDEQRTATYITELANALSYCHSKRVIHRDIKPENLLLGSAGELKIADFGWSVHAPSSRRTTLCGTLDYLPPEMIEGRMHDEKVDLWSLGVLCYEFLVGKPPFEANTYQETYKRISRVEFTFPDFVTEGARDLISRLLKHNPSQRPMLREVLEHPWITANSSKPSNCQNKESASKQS

[3] = cells; assay type: cell-based; details: Homo sapiens, HCT-116, 1 h
[4] = biological target: Mitogen-activated protein kinase 1 (Homo sapiens, UniProt P28482); assay: Inhibition of ERK2
[5] = biological target: Interleukin-1 receptor-associated kinase 4 (Homo sapiens, UniProt Q9NWZ3); assay: Inhibition of IRAK4
[6] = biological target: Serine/threonine-protein kinase Chk1 (Homo sapiens, UniProt O14757); assay: Inhibition of Chk1
[7] = biological target: Calcium/calmodulin-dependent protein kinase type IV (Homo sapiens, UniProt Q16566); assay: Inhibition of Camk4
[8] = biological target: RAC-alpha serine/threonine-protein kinase (Homo sapiens, UniProt P31749); assay: Inhibition of Akt1
[9] = Oral bioavailability in mouse; assay type: ADME, organism-based; details: in vivo
[10] = Aqueous solubility of the compound; assay type: physicochemical; details: buffer
[11] = Clearance in mouse; assay type: ADME, organism-based; details: in vivo
[12] = Clearance in human hepatocytes assessed per million cells; assay type: ADME, cell-based, Liver, Hepatocyte
[13] = Permeability across apical to basolateral side in human Caco2 cell membrane; assay type: ADME, cell-based; details: Caco-2, read-out: permeability
[14] = Plasma protein binding in human; assay type: ADME, cell-free; details: read-out: PPB (converted)
[15] = biological target: hERG (KCNH2) (Homo sapiens, UniProt Q12809); assay: Inhibition of human ERG assessed as Rb efflux at 1.5 ug/ml
[16] = biological target: Cytochrome P450 2C9 (Homo sapiens, UniProt P11712); assay: inhibition of CYP2C9; assay type: ADME
[17] = biological target: Cytochrome P450 2D6 (Homo sapiens, UniProt P10635); assay: inhibition of CYP2D6; assay type: ADME
[18] = biological target: Cytochrome P450 3A4 (Homo sapiens, UniProt P08684); assay: inhibition of CYP3A4; assay type: ADME
[19] = Inhibition of IGRF
[20] = biological target: Inhibitor of nuclear factor kappa-B kinase subunit beta (Homo sapiens, UniProt O14920); assay: Inhibition of IKKb
[21] = biological target: Tyrosine-protein kinase JAK2 (Homo sapiens, UniProt O60674); assay: Inhibition of Jak2
[22] = biological target: Tyrosine-protein kinase Lck (Homo sapiens, UniProt P06239); assay: Inhibition of LCK
[23] = biological target: Hepatocyte growth factor receptor (Homo sapiens, UniProt P08581); assay: Inhibition of cMet
[24] = biological target: Serine/threonine-protein kinase 3 (Homo sapiens, UniProt Q13188); assay: Inhibition of MST2
[25] = biological target: Protein kinase C alpha type (Homo sapiens, UniProt P17252); assay: Inhibition of PKCa
[26] = biological target: Serine/threonine-protein kinase PLK3 (Homo sapiens, UniProt Q9H4B4); assay: Inhibition of PLK3
[27] = biological target: Rho-associated protein kinase 2 (Homo sapiens, UniProt O75116); assay: Inhibition of Rock2
[28] = biological target: Ribosomal protein S6 kinase alpha-3 (Homo sapiens, UniProt P51812); assay: Inhibition of RSK2
[29] = biological target: Testis-specific serine/threonine-protein kinase 2 (Homo sapiens, UniProt Q96PF2); assay: Inhibition of TSSK2
[30] = biological target: Vascular endothelial growth factor receptor 2 (Homo sapiens, UniProt P35968); assay: Inhibition of VEGFR2

Sequence of Aurora kinase B (Q96GD4 whole entry): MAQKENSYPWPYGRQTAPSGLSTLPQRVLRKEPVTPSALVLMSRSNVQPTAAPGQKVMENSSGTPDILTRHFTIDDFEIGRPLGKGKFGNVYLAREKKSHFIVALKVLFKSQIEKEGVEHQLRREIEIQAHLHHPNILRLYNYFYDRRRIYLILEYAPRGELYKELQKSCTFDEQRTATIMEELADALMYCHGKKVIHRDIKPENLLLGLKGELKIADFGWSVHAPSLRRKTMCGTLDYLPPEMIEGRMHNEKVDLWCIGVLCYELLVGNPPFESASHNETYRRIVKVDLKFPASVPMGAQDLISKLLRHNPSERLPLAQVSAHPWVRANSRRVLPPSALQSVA
Sequence of Ribosomal protein S6 kinase alpha-3 (P51812 whole entry): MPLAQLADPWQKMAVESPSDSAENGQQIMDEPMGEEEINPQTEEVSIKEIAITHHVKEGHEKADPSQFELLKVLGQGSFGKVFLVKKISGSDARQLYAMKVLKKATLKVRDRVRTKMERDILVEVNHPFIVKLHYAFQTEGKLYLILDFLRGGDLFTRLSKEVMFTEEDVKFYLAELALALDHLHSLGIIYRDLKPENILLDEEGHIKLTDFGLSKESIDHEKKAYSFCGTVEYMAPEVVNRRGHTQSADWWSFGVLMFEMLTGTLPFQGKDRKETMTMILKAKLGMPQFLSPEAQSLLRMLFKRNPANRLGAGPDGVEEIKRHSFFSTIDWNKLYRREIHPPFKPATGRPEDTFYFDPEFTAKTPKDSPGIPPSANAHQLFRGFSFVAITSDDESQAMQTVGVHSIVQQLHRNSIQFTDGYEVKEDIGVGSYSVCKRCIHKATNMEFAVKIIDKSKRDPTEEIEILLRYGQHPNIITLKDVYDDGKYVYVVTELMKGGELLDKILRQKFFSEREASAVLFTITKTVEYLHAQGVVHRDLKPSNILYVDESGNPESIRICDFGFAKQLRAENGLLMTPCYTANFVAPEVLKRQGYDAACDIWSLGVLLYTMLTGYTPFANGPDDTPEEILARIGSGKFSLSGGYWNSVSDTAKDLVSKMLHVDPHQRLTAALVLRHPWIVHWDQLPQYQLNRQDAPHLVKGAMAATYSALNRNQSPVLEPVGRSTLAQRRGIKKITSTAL
Sequence of Hepatocyte growth factor receptor (P08581 whole entry): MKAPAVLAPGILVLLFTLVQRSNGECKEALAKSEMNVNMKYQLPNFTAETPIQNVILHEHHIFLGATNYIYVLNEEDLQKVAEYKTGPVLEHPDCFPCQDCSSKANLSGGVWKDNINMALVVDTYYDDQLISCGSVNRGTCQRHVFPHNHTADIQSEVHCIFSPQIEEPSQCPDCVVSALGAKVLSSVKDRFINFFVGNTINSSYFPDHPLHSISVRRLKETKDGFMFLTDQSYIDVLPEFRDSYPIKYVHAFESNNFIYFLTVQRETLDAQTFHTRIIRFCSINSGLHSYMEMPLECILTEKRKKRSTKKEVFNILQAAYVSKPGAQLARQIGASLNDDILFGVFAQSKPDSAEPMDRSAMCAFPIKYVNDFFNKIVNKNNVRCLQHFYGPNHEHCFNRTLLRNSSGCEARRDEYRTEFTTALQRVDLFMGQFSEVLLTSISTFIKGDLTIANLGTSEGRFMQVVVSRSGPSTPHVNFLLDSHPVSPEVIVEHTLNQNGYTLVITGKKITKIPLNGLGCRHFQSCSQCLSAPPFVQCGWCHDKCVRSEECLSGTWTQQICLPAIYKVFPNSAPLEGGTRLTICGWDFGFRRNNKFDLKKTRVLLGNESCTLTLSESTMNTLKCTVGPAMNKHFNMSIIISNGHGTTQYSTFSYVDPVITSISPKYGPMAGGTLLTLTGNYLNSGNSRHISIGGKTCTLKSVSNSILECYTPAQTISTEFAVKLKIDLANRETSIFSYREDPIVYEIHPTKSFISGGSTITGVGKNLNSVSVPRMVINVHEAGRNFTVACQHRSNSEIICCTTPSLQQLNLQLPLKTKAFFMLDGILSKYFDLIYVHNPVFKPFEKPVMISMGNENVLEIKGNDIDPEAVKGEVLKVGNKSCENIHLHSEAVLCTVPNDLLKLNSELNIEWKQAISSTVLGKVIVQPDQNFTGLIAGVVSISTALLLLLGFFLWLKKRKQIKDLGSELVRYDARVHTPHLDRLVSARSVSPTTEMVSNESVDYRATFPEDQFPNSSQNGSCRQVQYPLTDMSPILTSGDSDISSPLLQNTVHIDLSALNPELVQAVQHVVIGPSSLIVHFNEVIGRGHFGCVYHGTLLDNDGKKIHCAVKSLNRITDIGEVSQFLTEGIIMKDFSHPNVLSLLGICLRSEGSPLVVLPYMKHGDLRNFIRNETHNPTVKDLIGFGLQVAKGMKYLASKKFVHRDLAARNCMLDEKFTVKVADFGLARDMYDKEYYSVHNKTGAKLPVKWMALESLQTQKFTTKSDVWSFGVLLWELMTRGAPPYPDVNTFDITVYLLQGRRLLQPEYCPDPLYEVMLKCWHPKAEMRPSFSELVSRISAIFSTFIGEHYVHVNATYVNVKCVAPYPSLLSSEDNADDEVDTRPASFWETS
Sequence of Serine/threonine-protein kinase 3 (Q13188 whole entry): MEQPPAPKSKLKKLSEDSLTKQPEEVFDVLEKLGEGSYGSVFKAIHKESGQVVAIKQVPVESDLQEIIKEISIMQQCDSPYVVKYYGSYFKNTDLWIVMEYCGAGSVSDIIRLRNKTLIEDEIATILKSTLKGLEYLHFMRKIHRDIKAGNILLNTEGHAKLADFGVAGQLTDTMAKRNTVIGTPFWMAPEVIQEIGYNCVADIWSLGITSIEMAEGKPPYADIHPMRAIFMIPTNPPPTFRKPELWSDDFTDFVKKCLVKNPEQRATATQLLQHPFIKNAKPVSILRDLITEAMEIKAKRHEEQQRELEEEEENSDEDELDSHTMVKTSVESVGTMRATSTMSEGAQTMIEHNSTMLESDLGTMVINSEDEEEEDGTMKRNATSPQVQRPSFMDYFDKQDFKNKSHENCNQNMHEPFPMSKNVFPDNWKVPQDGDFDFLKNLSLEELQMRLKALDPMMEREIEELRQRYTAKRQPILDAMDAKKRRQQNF
Sequence of Serine/threonine-protein kinase Chk1 (O14757 whole entry): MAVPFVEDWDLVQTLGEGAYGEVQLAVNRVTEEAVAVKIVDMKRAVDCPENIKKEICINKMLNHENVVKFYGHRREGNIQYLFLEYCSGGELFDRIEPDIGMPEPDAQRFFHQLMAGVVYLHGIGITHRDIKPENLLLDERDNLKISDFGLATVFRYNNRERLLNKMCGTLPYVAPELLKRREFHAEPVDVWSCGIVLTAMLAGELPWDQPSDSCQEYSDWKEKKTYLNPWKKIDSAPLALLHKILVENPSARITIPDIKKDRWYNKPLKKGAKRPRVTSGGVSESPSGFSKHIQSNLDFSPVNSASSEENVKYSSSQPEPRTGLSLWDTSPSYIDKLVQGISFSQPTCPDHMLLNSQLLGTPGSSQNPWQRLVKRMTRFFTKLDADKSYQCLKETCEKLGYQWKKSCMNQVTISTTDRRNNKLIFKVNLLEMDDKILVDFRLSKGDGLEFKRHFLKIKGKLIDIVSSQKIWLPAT
Sequence of Mitogen-activated protein kinase 1 (P28482 whole entry): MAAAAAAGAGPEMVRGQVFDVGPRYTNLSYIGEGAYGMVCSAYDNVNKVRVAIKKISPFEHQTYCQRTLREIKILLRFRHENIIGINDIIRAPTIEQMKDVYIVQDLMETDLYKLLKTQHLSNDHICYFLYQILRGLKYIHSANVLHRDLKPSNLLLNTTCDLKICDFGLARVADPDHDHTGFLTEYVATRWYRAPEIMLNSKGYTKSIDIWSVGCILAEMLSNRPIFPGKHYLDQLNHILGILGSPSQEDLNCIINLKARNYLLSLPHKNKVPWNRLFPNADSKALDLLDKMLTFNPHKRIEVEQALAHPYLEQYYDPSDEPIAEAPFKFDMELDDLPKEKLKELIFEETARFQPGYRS
Sequence of Cytochrome P450 3A4 (P08684 whole entry): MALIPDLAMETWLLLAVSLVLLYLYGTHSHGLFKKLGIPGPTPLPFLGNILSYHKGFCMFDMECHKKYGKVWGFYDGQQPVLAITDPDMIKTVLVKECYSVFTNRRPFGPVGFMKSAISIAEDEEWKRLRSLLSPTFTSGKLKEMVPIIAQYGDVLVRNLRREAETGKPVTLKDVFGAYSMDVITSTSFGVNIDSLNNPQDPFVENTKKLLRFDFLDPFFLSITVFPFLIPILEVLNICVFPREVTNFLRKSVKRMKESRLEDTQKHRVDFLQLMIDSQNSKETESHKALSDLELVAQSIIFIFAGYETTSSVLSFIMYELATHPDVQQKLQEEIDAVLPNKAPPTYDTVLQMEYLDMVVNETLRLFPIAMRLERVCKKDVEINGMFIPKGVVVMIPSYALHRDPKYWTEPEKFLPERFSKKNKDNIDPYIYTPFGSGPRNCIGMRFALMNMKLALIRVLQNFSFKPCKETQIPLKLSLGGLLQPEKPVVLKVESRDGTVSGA

Compound: CSc1cn2c(-c3cn[nH]c3)cnc2c(Nc2cc(C)ns2)n1
- IC50 ([1]; read-out: IC50): ≤ 13 nM
- EC50 [3]: 600 nM
- IC50 [4]: > 10000 nM
- IC50 [5]: 167 nM
- IC50 [6]: 187 nM
- IC50 [7]: > 10000 nM
- IC50 [8]: > 10000 nM
- bioavailability [9]: 4%
- solubility [10]: 25 µM (≈ 8.59 µg/mL)
- clearance [11]: 89 mL/min/kg
- hepatocyte CLint [12]: 49.7 µL/min/1e6 cells
- Papp A→B [13]: 63.3 ×10⁻⁶ cm/s
- fraction unbound [14]: 0.006
- inhibition at 1.5 ug/ml [15]: 8.7%
- INH [16]: > 20 µM
- INH [17]: > 20 µM
- INH [18]: > 20 µM
- IC50 [19]: > 10000 nM
- IC50 [20]: > 10000 nM
- IC50 [21]: > 10000 nM
- IC50 [22]: 468 nM
- IC50 [23]: > 10000 nM
- IC50 [24]: > 10000 nM
- IC50 [25]: > 10000 nM
- IC50 [26]: 785 nM
- IC50 [27]: > 10000 nM
- IC50 [28]: 1310 nM
- IC50 [29]: > 10000 nM
- IC50 [30]: 36 nM

Compound: Cc1cc(Nc2nc(C)cn3c(-c4cn[nH]c4)cnc23)sn1
- IC50 ([1]; read-out: IC50): ≤ 13 nM
- EC50 [3]: 250 nM

Compound: Cc1cc(Nc2nc(-c3cccnc3)cn3c(-c4cn[nH]c4)cnc23)sn1
- IC50 ([1]; read-out: IC50): 62 nM
- IC50 [2]: 8 nM
- EC50 [3]: > 10000 nM

Compound: CC(C)c1cc(Nc2nccn3c(-c4cnn(C)c4)cnc23)sn1
- IC50 ([1]; read-out: IC50): 700 nM
- IC50 [2]: 640 nM

Compound: Cc1nsc(Nc2nccn3c(-c4cnn(C)c4)cnc23)n1
- IC50 [1]: Not Active
- IC50 [2]: > 10000 nM

Compound: Cc1csc(Nc2nccn3c(-c4cnn(C)c4)cnc23)n1
- IC50 [1]: Not Active
- IC50 [2]: > 10000 nM

Compound: Cc1csc(Nc2nccn3c(-c4cnn(C)c4)cnc23)c1
- IC50 ([1]; read-out: IC50): 3000 nM
- IC50 [2]: 2500 nM

Compound: CN(C)c1cccc(Nc2nccn3c(-c4cnn(C)c4)cnc23)c1
- IC50 [1]: Not Active
- IC50 [2]: > 10000 nM

Compound: CN(C)S(=O)(=O)c1ccc(Nc2nccn3c(-c4cnn(C)c4)cnc23)cc1
- IC50 [1]: Not Active
- IC50 [2]: 3700 nM

Compound: Cc1cc(Nc2nc(CN3CCOCC3)cn3c(-c4cn[nH]c4)cnc23)sn1
- IC50 ([1]; read-out: IC50): 110 nM
- IC50 [2]: 50 nM
- EC50 [3]: > 10000 nM

Compound: Cc1cc(Nc2nc(C(F)(F)F)cn3c(-c4cn[nH]c4)cnc23)sn1
- IC50 ([1]; read-out: IC50): 252 nM
- IC50 [2]: 27 nM
- EC50 [3]: > 10000 nM

Compound: CCc1cn2c(-c3cn[nH]c3)cnc2c(Nc2cc(C)ns2)n1
- IC50 ([1]; read-out: IC50): ≤ 13 nM
- EC50 [3]: 850 nM

Compound: Cc1cc(Nc2nc(CCN)cn3c(-c4cn[nH]c4)cnc23)sn1
- IC50 ([1]; read-out: IC50): 33 nM
- IC50 [2]: 83 nM
- EC50 [3]: > 10000 nM

Compound: Cc1cc(Nc2nc(C#N)cn3c(-c4cn[nH]c4)cnc23)sn1
- IC50 ([1]; read-out: IC50): 219 nM
- IC50 [2]: 46 nM
- EC50 [3]: > 10000 nM

Compound: CCSc1cn2c(-c3cn[nH]c3)cnc2c(Nc2cc(C)ns2)n1
- IC50 ([1]; read-out: IC50): 24 nM

Compound: Cc1cc(Nc2nc(SCCN(C)C)cn3c(-c4cn[nH]c4)cnc23)sn1
- EC50 [3]: > 10000 nM

Compound: Cc1cc(Nc2nc(SC(C)(C)C)cn3c(-c4cn[nH]c4)cnc23)sn1
- IC50 ([1]; read-out: IC50): 272 nM
- EC50 [3]: 5600 nM

Compound: Cc1cc(Nc2nc(Sc3ccc(F)cc3)cn3c(-c4cn[nH]c4)cnc23)sn1
- IC50 ([1]; read-out: IC50): 129 nM
- EC50 [3]: 2500 nM

Compound: Cc1cc(Nc2nc([S+](C)[O-])cn3c(-c4cn[nH]c4)cnc23)sn1 (racemic)
- IC50 ([1]; read-out: IC50): 185 nM
- IC50 [2]: 30 nM
- EC50 [3]: > 10000 nM

Now from value to compound:

- IC50 ([1]; read-out: IC50): ≤ 13 nM
- IC50 [2]: ≤ 4 nM
- EC50 [3]: 1300 nM
Compound: Cc1cc(Nc2nccn3c(-c4cn[nH]c4)cnc23)sn1

- IC50 ([1]; read-out: IC50): 360 nM
- IC50 [2]: 570 nM
Compound: Cc1cc(Nc2nccn3c(-c4cnn(C)c4)cnc23)sn1

- IC50 ([1]; read-out: IC50): 200 nM
- IC50 [2]: 1600 nM
Compound: Cn1cc(-c2cnc3c(Nc4cc(C5CCNCC5)ns4)nccn23)cn1

- IC50 ([1]; read-out: IC50): 110 nM
- IC50 [2]: 170 nM
Compound: Cn1cc(-c2cnc3c(Nc4cc(C5CCN(S(C)(=O)=O)CC5)ns4)nccn23)cn1

- IC50 ([1]; read-out: IC50): 18 nM
- IC50 [2]: 6 nM
- EC50 [3]: 1300 nM
Compound: CS(=O)(=O)N1CCC(c2cc(Nc3nccn4c(-c5cn[nH]c5)cnc34)sn2)CC1

- IC50 ([1]; read-out: IC50): 120 nM
- IC50 [2]: 81 nM
Compound: O=S(=O)(c1ccc(Nc2nccn3c(-c4cn[nH]c4)cnc23)cc1)N1CCOCC1

- IC50 ([1]; read-out: IC50): 51 nM
- IC50 [2]: 17 nM
- EC50 [3]: 2600 nM
Compound: Cc1cc(Nc2nc(C3CC3)cn3c(-c4cn[nH]c4)cnc23)sn1

- IC50 ([1]; read-out: IC50): > 3000 nM
- IC50 [2]: 603 nM
Compound: Cc1cc(Nc2nc(S(C)(=O)=O)cn3c(-c4cn[nH]c4)cnc23)sn1
